According to the NIST ThermoML archive (doi:10.1007/s10765-006-0033-6):
Numbers after ± are expanded uncertainties.

Test: compressibility factor (dimensionless); xn = mol fraction of the nth substance listed
Details: Gas, Other PVT measurement

[N-]=[N+]=O [nitrous oxide] + FCF
compressibility factor (343.77 K, 195.1 kPa, x1 = 0.4666): 0.989 ± 0.0005
compressibility factor (343.77 K, 207.5 kPa, x1 = 0.2266): 0.9867 ± 0.0005
compressibility factor (343.77 K, 226.8 kPa, x1 = 0.7567): 0.9899 ± 0.0005
compressibility factor (343.77 K, 290.7 kPa, x1 = 0.4666): 0.985 ± 0.0005
compressibility factor (343.77 K, 308.8 kPa, x1 = 0.2266): 0.9814 ± 0.0005
compressibility factor (343.77 K, 338.1 kPa, x1 = 0.7567): 0.9863 ± 0.0005
compressibility factor (343.77 K, 432.2 kPa, x1 = 0.4666): 0.9788 ± 0.0005
compressibility factor (343.77 K, 458 kPa, x1 = 0.2266): 0.973 ± 0.0005
compressibility factor (343.77 K, 502.9 kPa, x1 = 0.7567): 0.9804 ± 0.0005
compressibility factor (343.77 K, 640.2 kPa, x1 = 0.4666): 0.9692 ± 0.0005
compressibility factor (343.77 K, 676.2 kPa, x1 = 0.2266): 0.9601 ± 0.0005
compressibility factor (343.77 K, 745.4 kPa, x1 = 0.7567): 0.9714 ± 0.0005
compressibility factor (343.77 K, 943.3 kPa, x1 = 0.4666): 0.9546 ± 0.0005
compressibility factor (343.77 K, 991.2 kPa, x1 = 0.2266): 0.9407 ± 0.0005
compressibility factor (343.77 K, 1099.4 kPa, x1 = 0.7567): 0.9577 ± 0.0005
compressibility factor (343.77 K, 1379.1 kPa, x1 = 0.4666): 0.9328 ± 0.0005
compressibility factor (343.77 K, 1438.1 kPa, x1 = 0.2266): 0.9123 ± 0.0005
compressibility factor (343.77 K, 1609.7 kPa, x1 = 0.7567): 0.9372 ± 0.0005
compressibility factor (343.77 K, 1992.6 kPa, x1 = 0.4666): 0.9008 ± 0.0005
compressibility factor (343.77 K, 2053.8 kPa, x1 = 0.2266): 0.8708 ± 0.0004
compressibility factor (343.77 K, 2331.4 kPa, x1 = 0.7567): 0.9073 ± 0.0005
compressibility factor (343.77 K, 2828.1 kPa, x1 = 0.4666): 0.8546 ± 0.0004
compressibility factor (343.77 K, 2865.7 kPa, x1 = 0.2266): 0.8122 ± 0.0004
compressibility factor (343.77 K, 3321.8 kPa, x1 = 0.7567): 0.8641 ± 0.0004
compressibility factor (343.77 K, 3911.6 kPa, x1 = 0.4666): 0.7901 ± 0.0004
compressibility factor (343.77 K, 4620.1 kPa, x1 = 0.7567): 0.8033 ± 0.0004
compressibility factor (343.78 K, 138.3 kPa, x1 = 0.3594): 0.9911 ± 0.0005
compressibility factor (343.78 K, 187.9 kPa, x1 = 0.5908): 0.9906 ± 0.0005
compressibility factor (343.78 K, 206.4 kPa, x1 = 0.3594): 0.9884 ± 0.0005
compressibility factor (343.78 K, 280.1 kPa, x1 = 0.5908): 0.9872 ± 0.0005
compressibility factor (343.78 K, 307.3 kPa, x1 = 0.3594): 0.9836 ± 0.0005
compressibility factor (343.78 K, 416.8 kPa, x1 = 0.5908): 0.9817 ± 0.0005
compressibility factor (343.78 K, 456.2 kPa, x1 = 0.3594): 0.9762 ± 0.0005
compressibility factor (343.78 K, 618.2 kPa, x1 = 0.5908): 0.9733 ± 0.0005
compressibility factor (343.78 K, 674.7 kPa, x1 = 0.3594): 0.9649 ± 0.0005
compressibility factor (343.78 K, 912.7 kPa, x1 = 0.5908): 0.9605 ± 0.0005
compressibility factor (343.78 K, 991.4 kPa, x1 = 0.3594): 0.9477 ± 0.0005
compressibility factor (343.78 K, 1338.5 kPa, x1 = 0.5908): 0.9415 ± 0.0005
compressibility factor (343.78 K, 1443.8 kPa, x1 = 0.3594): 0.9225 ± 0.0005
compressibility factor (343.78 K, 1942.8 kPa, x1 = 0.5908): 0.9134 ± 0.0005
compressibility factor (343.78 K, 2073.7 kPa, x1 = 0.3594): 0.8857 ± 0.0004
compressibility factor (343.78 K, 2776.8 kPa, x1 = 0.5908): 0.8726 ± 0.0004
compressibility factor (343.78 K, 2917.9 kPa, x1 = 0.3594): 0.833 ± 0.0004
compressibility factor (343.78 K, 3879.6 kPa, x1 = 0.5908): 0.8149 ± 0.0004
compressibility factor (364.35 K, 199.4 kPa, x1 = 0.5606): 0.9913 ± 0.0005
compressibility factor (364.35 K, 297.5 kPa, x1 = 0.5606): 0.9887 ± 0.0005
compressibility factor (364.35 K, 443 kPa, x1 = 0.5606): 0.9839 ± 0.0005
compressibility factor (364.35 K, 657.8 kPa, x1 = 0.5606): 0.9766 ± 0.0005
compressibility factor (364.35 K, 972.8 kPa, x1 = 0.5606): 0.9653 ± 0.0005
compressibility factor (364.35 K, 1430 kPa, x1 = 0.5606): 0.9485 ± 0.0005
compressibility factor (364.35 K, 2083.5 kPa, x1 = 0.5606): 0.9237 ± 0.0005
compressibility factor (364.35 K, 2996.2 kPa, x1 = 0.5606): 0.8879 ± 0.0004
compressibility factor (364.35 K, 4225.6 kPa, x1 = 0.5606): 0.837 ± 0.0004
compressibility factor (364.36 K, 114.2 kPa, x1 = 0.2563): 0.9933 ± 0.0005
compressibility factor (364.36 K, 134.6 kPa, x1 = 0.33): 0.9913 ± 0.0005
compressibility factor (364.36 K, 170.5 kPa, x1 = 0.2563): 0.9913 ± 0.0005
compressibility factor (364.36 K, 197 kPa, x1 = 0.4559): 0.9909 ± 0.0005
compressibility factor (364.36 K, 200.9 kPa, x1 = 0.33): 0.9892 ± 0.0005
compressibility factor (364.36 K, 250.5 kPa, x1 = 0.7632): 0.9908 ± 0.0005
compressibility factor (364.36 K, 254.2 kPa, x1 = 0.2563): 0.9878 ± 0.0005
compressibility factor (364.36 K, 294 kPa, x1 = 0.4559): 0.9885 ± 0.0005
compressibility factor (364.36 K, 299.7 kPa, x1 = 0.33): 0.9864 ± 0.0005
compressibility factor (364.36 K, 373.5 kPa, x1 = 0.7632): 0.9875 ± 0.0005
compressibility factor (364.36 K, 378.2 kPa, x1 = 0.2563): 0.9825 ± 0.0005
compressibility factor (364.36 K, 437.3 kPa, x1 = 0.4559): 0.9828 ± 0.0005
compressibility factor (364.36 K, 445.6 kPa, x1 = 0.33): 0.9802 ± 0.0005
compressibility factor (364.36 K, 556.1 kPa, x1 = 0.7632): 0.9827 ± 0.0005
compressibility factor (364.36 K, 561.2 kPa, x1 = 0.2563): 0.9743 ± 0.0005
compressibility factor (364.36 K, 649 kPa, x1 = 0.4559): 0.9748 ± 0.0005
compressibility factor (364.36 K, 660.6 kPa, x1 = 0.33): 0.9712 ± 0.0005
compressibility factor (364.36 K, 824.6 kPa, x1 = 0.7632): 0.974 ± 0.0005
compressibility factor (364.36 K, 828.8 kPa, x1 = 0.2563): 0.9619 ± 0.0005
compressibility factor (364.36 K, 959 kPa, x1 = 0.4559): 0.9628 ± 0.0005
compressibility factor (364.36 K, 974.3 kPa, x1 = 0.33): 0.9575 ± 0.0005
compressibility factor (364.36 K, 1216 kPa, x1 = 0.2563): 0.9432 ± 0.0005
compressibility factor (364.36 K, 1218.7 kPa, x1 = 0.7632): 0.9621 ± 0.0005
compressibility factor (364.36 K, 1408 kPa, x1 = 0.4559): 0.9448 ± 0.0005
compressibility factor (364.36 K, 1425.9 kPa, x1 = 0.33): 0.9367 ± 0.0005
compressibility factor (364.36 K, 1766.2 kPa, x1 = 0.2563): 0.9157 ± 0.0005
compressibility factor (364.36 K, 1788.6 kPa, x1 = 0.7632): 0.9438 ± 0.0005
compressibility factor (364.36 K, 2047.8 kPa, x1 = 0.4559): 0.9185 ± 0.0005
compressibility factor (364.36 K, 2064.5 kPa, x1 = 0.33): 0.9064 ± 0.0005
compressibility factor (364.36 K, 2528.1 kPa, x1 = 0.2563): 0.8762 ± 0.0004
compressibility factor (364.36 K, 2598.5 kPa, x1 = 0.7632): 0.9166 ± 0.0005
compressibility factor (364.36 K, 2935.9 kPa, x1 = 0.4559): 0.8802 ± 0.0004
compressibility factor (364.36 K, 2942.6 kPa, x1 = 0.33): 0.8636 ± 0.0004
compressibility factor (364.36 K, 3725.1 kPa, x1 = 0.7632): 0.8782 ± 0.0004
compressibility factor (364.36 K, 4122.8 kPa, x1 = 0.4559): 0.8262 ± 0.0004
compressibility factor (364.36 K, 5229 kPa, x1 = 0.7632): 0.824 ± 0.0004
